Results on seven compounds are retold here after patent US6403149B1, “Fluorinated ketones as lubricant deposition solvents for magnetic media applications” (3M Innovative Properties Company, priority 2001, dated 2002).

Like-named read-outs stand apart in the source and are kept apart here. A value given as a limit tells only on which side of the number the result lay.

Series [1] in a line: Solubility/miscibility of perfluoropolyether lubricants (Z-DOL, AM 3001) and phosphazene additive X-1P in fluorinated solvents. As for the experimental part: The term “miscible” denotes that the lubricant and fluorinated solvent were miscible in all proportions, forming an essentially clear solution. Any number entry denotes solubility in the fluorinated solvent as percent by weight. The term “NT” denotes that the compound was not tested for solubility with the solvent.
Z-DOL was evaluated for solubility in the following fluorinated ketones: […]

The nature of series [2]: Solubility of impurities (dioctyl phthalate, silicone oils) in fluorinated solvents. The class given is physicochemical. As for the experimental part: In Comparative Examples C6-C10, the same “impurities” were evaluated for solubility in C6F14 (a perfluorocarbon), C4F9OCH3 (a hydrofluoroether), CF3CFHCFHCF2CF3 (a hydrofluorocarbon), C3F5HCl2 (a hydrochlorofluorocarbon), and […] (a chlorofluorocarbon), all fluorinated solvents outside the scope of this invention.
The term “NT” denotes that the impurity was not tested in the fluorinated solvent.

Series [3] in a line: Short-term inhalation tests with rats (acute toxicity). The class given is in vivo. The source says: (§1) Additionally, the fluorinated ketones have low toxicity.
Series [4] in a line: Cardiac sensitization no-effect level. The settings on record: in vivo, inhaled.
Text: as §1

Where [5] appears, read: solute FOMBLIN AM 3001 perfluoropolyether lubricant, miscible = miscible in all proportions.
Where [6] appears, read: solute X-1P cyclic phosphazene additive, miscible = miscible in all proportions.
[7] abbreviates: solute Z-DOL perfluoropolyether lubricant, miscible = miscible in all proportions, essentially clear solution.

On to `O=C(C(F)(C(F)(F)F)C(F)(F)F)C(F)(C(F)(F)F)C(F)(F)F` [(CF3)2CFC(O)CF(CF3)2, 1,1,1,2,4,5,5,5,6,6,6-octafluoro-2,4-bis(trifluoromethyl)pentan-3-one], for which the “Solubility of AM 3001 in the solvent” value in series [1] (setting [5]) is on record as “miscible”. Also, the “Solubility of X-1P in the solvent” value in series [1] (setting [6]) was 0.03 percent by weight. For the same compound, the “Solubility of Z-DOL in the solvent” value in series [1] (setting [7]) was “miscible”.
Consider `COC(F)(F)C(F)(F)C(F)(F)C(F)(F)F` [C4F9OCH3, perfluorobutyl methyl ether], for which the “Solubility of AM 3001 in the solvent” value in series [1] (setting [5]) was “miscible”. The “Solubility of X-1P in the solvent” value in series [1] (setting [6]) is “miscible”. Further, the “Solubility of Z-DOL in the solvent” value in series [1] (setting [7]) is on record as “miscible”.
Regarding `FC(F)(F)C(F)(F)C(F)(F)C(F)(F)C(F)(F)C(F)(F)F` [C6F14, perfluorohexane], the “Solubility of AM 3001 in the solvent” value in series [1] (setting [5]) was “miscible”. Further, the “Solubility of Z-DOL in the solvent” value in series [1] (setting [7]) was “miscible”.
Turning to `O=C(C(F)(F)C(F)(F)F)C(F)(C(F)(F)F)C(F)(F)F` [CF3CF2C(O)CF(CF3)2, 1,1,1,2,4,4,5,5,5-nonafluoro-2-trifluoromethyl-pentan-3-one], in series [1], the “Solubility of AM 3001 in the solvent” value is “miscible”, the “Solubility of X-1P in the solvent” value stood at 0.03 percent by weight and the “Solubility of Z-DOL in the solvent” value is on record as “miscible”. In addition, in series [2], the “Solubility of DOP in the solvent” value worked out at 0.024, the “Solubility of Silicone 100 cst in the solvent” value was less than 0.01, the “Solubility of Silicone 1000 cst in the solvent” value is reported as less than 0.01 and the “Solubility of Silicone 10000 cst in the solvent” value is given as less than 0.01. Moreover, the Acute toxicity entry in series [3] is “low acute toxicity”. Besides, in series [4], the “"no-effect" level for cardiac sensitization” value was > 150,000 ppm.
With `FC(C(F)C(F)(F)C(F)(F)F)C(F)(F)F` (stereo not shown) [CF3CFHCFHCF2CF3, 1,1,1,2,3,4,4,5,5,5-decafluoropentane], the “Solubility of AM 3001 in the solvent” value in series [1] (setting [5]) is listed as “miscible”. The “Solubility of X-1P in the solvent” value in series [1] (setting [6]) is on record as “miscible”. Moreover, the “Solubility of Z-DOL in the solvent” value in series [1] (setting [7]) is on record as “miscible”.
With `O=C(C(F)(F)C(F)(F)C(F)(F)F)C(F)(C(F)(F)F)C(F)(F)F` [n-C3F7C(O)CF(CF3)2, 1,1,1,2,4,4,5,5,6,6,6-undecafluoro-2-trifluoromethylhexan-3-one], the “Solubility of AM 3001 in the solvent” value in series [1] (setting [5]) is “miscible”. In series [1] (setting [7]), the “Solubility of Z-DOL in the solvent” value was “miscible”.
For dichloropentafluoropropane [C3F5HCl2], the “Solubility of AM 3001 in the solvent” value in series [1] (setting [5]) is on record as “miscible”. In series [1] (setting [6]), the “Solubility of X-1P in the solvent” value is “miscible”. Further, in series [1] (setting [7]), the “Solubility of Z-DOL in the solvent” value is recorded as “miscible”.
